These results are taken from ChEMBL document CHEMBL1201862, “PubChem BioAssay data set” (2004).

Test systems include SK-MEL-5; NCI-H226; LOX IMVI; KM12; HCT-15; SNB-19; NCI-H460; DU-145; OVCAR-5; TK-10; COLO 205; HCT-116; UO-31; SN12C; OVCAR-4; A549; CAKI-1; SK-OV-3; NCI-H23; SF-268.
Experiment in all cases: growth of human tumour cells (NCI), 48 h

Each structure is given as a SMILES string.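 96-well plates; 48 h exposure; 5 concentrations. Endpoints by linear interpolation between flanking doses. Not reached: highest tested concentration assigned. GI50 = concentration required for 50% inhibition of growth.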 Activity calls are given as the source filed them. Rule as the data show it: active = GI50 up to about 1.1 µM and inactive = higher. Bounds are passed on as bounds.

On to `CC(C)N(CC(=O)O)CC(=O)O`, for which the GI50 in the test with SK-MEL-5 was > 100 µM (inactive); in the test with NCI-H226, > 100 µM (inactive); in the test with LOX IMVI, > 100 µM (inactive); with KM12 it was > 100 µM (inactive); with HCT-15, greater than 100 µM; with SNB-19, > 100 µM (inactive). The GI50 in the test with NCI-H460, in the test on DU-145, in the test with OVCAR-5, in the test on TK-10, in the test with COLO 205 and with HCT-116 was > 100 µM (inactive) each time. Moreover, the GI50 with UO-31, in the test with SN12C, with OVCAR-4, with A549, in the test with CAKI-1 and with SK-OV-3 was > 100 µM (inactive) in each case. Further, the GI50 in the test with NCI-H23 and with SF-268 was > 100 µM (inactive) throughout.
As to `CSc1ncnc2c1cnn2CCCCO`, the GI50 in the test with SK-MEL-5 was > 100 µM (inactive); in the test on NCI-H226 it was > 100 µM (inactive); in the test with LOX IMVI it was > 100 µM (inactive); in the test on KM12 it was > 100 µM (inactive); with HCT-15 it was greater than 100 µM; with SNB-19, > 100 µM (inactive). The GI50 in the test on NCI-H460, in the test with DU-145, in the test with OVCAR-5, in the test on TK-10, in the test with COLO 205 and with HCT-116 was > 100 µM (inactive) in each case. Moreover, the GI50 in the test with UO-31, in the test on SN12C, in the test on OVCAR-4, in the test with A549, with CAKI-1 and with SK-OV-3 was > 100 µM (inactive) each time. The GI50 with NCI-H23 and with SF-268 was > 100 µM (inactive) in each case.
In the case of `CC(C)=CCN1CC(C)C(=O)Nc2ccccc21` (stereo not given), the GI50 in the test on SK-MEL-5 is 42.6 µM (inactive); with NCI-H226, 65.2 µM (inactive); in the test with LOX IMVI, > 100 µM (inactive); in the test with KM12, > 100 µM (inactive); in the test on HCT-15, greater than 100 µM; in the test on SNB-19 it was > 100 µM (inactive). The GI50 is 93.3 µM (inactive) in the test on NCI-H460; > 100 µM (inactive) in the test with DU-145; > 100 µM (inactive) in the test with OVCAR-5; > 100 µM (inactive) with TK-10; > 100 µM (inactive) with COLO 205; > 100 µM (inactive) with HCT-116. The GI50 with UO-31, with SN12C, with OVCAR-4, with A549, in the test on CAKI-1 and in the test with SK-OV-3 was > 100 µM (inactive) throughout. In addition, the GI50 with NCI-H23 and in the test with SF-268 was > 100 µM (inactive) throughout.
Turning to `CCOC(=O)CCSc1nc2ccc(I)cc2c(=O)n1Cc1ccccc1`, the GI50 in the test on SK-MEL-5 was 12.6 µM (inactive); in the test on NCI-H226, 21.6 µM (inactive); with LOX IMVI, 28.2 µM (inactive); in the test on KM12 it was 22.3 µM (inactive); with HCT-15 it was 18 µM; with SNB-19 it was 38.2 µM (inactive). The GI50 in the test with NCI-H460 is 22.6 µM (inactive); with DU-145, 37.1 µM (inactive); in the test with OVCAR-5 it was > 83.8 µM (inactive); with TK-10 it was 39.4 µM (inactive); in the test on COLO 205 it was 12.4 µM (inactive); in the test with HCT-116, 18.8 µM (inactive). The GI50 was 0.395 µM (active) with UO-31; 31.8 µM (inactive) in the test with SN12C; 19.5 µM (inactive) with OVCAR-4; 31.6 µM (inactive) in the test with A549; 2.67 µM (inactive) in the test on CAKI-1; > 69.8 µM (inactive) in the test with SK-OV-3. Further, the GI50 is 15.6 µM (inactive) in the test on NCI-H23 and 27.2 µM (inactive) with SF-268.
Consider `N#CSc1[nH]cnc1C(N)=O`, for which the GI50 in the test on SK-MEL-5 is > 100 µM (inactive); in the test on NCI-H226, > 100 µM (inactive); in the test with LOX IMVI it was 41.3 µM (inactive); in the test with KM12 it was > 100 µM (inactive); with HCT-15, greater than 100 µM; with SNB-19, > 100 µM (inactive). Besides, the GI50 is > 100 µM (inactive) in the test with NCI-H460; > 100 µM (inactive) with DU-145; > 100 µM (inactive) in the test with OVCAR-5; > 100 µM (inactive) in the test with TK-10; > 81.8 µM (inactive) in the test on COLO 205; 60 µM (inactive) with HCT-116. In addition, the GI50 is > 93.5 µM (inactive) in the test on UO-31; 27.9 µM (inactive) in the test with SN12C; > 100 µM (inactive) in the test with OVCAR-4; > 100 µM (inactive) with A549; > 44.4 µM (inactive) with CAKI-1; > 100 µM (inactive) in the test with SK-OV-3. The GI50 in the test on NCI-H23 and in the test with SF-268 was > 100 µM (inactive) each time.
In the case of `c1ccc(CSc2ccccc2CN2CCN(Cc3ccccc3SCc3ccccc3)CCN(Cc3ccccc3SCc3ccccc3)CC2)cc1`, the GI50 is 1.57 µM (inactive) in the test with SK-MEL-5; 1.81 µM (inactive) with NCI-H226; 1.33 µM (inactive) with LOX IMVI; 1.58 µM (inactive) in the test with KM12; 1.61 µM in the test with HCT-15; 1.92 µM (inactive) with SNB-19. For the same compound, the GI50 in the test with NCI-H460 is 1.19 µM (inactive); in the test on DU-145 it was 2.94 µM (inactive); with OVCAR-5, 1.64 µM (inactive); in the test with TK-10, 2.3 µM (inactive); in the test on COLO 205, 0.869 µM (active); in the test with HCT-116, 0.646 µM (active). Moreover, the GI50 is 2.59 µM (inactive) with UO-31; 1.72 µM (inactive) with SN12C; 1.45 µM (inactive) in the test with OVCAR-4; 2.35 µM (inactive) in the test on A549; 3.21 µM (inactive) with CAKI-1; 2.21 µM (inactive) in the test with SK-OV-3. The GI50 in the test with NCI-H23 was 0.951 µM (active); in the test with SF-268 it was 2.94 µM (inactive).
Turning to `COc1ccc(Cn2c(=O)c(OS(=O)(=O)C(F)(F)F)c(C)c3cc4ccccc4cc32)cc1`, the GI50 with SK-MEL-5 is > 100 µM (inactive); in the test on NCI-H226 it was > 100 µM (inactive); in the test on LOX IMVI, > 100 µM (inactive); in the test on KM12, > 100 µM (inactive); in the test on HCT-15 it was greater than 100 µM; in the test with SNB-19, > 100 µM (inactive). The GI50 in the test with NCI-H460, in the test on DU-145, with OVCAR-5, in the test with TK-10, with COLO 205 and with HCT-116 was > 100 µM (inactive) in each case. Besides, the GI50 in the test on UO-31 was > 100 µM (inactive); in the test on SN12C, > 100 µM (inactive); in the test on OVCAR-4, 88.7 µM (inactive); in the test on A549, > 100 µM (inactive); with CAKI-1, > 100 µM (inactive); with SK-OV-3, > 100 µM (inactive). For the same compound, the GI50 in the test on NCI-H23 and in the test with SF-268 was > 100 µM (inactive) in each case.
As for `COc1ccc(C(=O)/C=C/c2cc(O)c(O)cc2F)c(OC)c1`, the GI50 was 8.05 µM (inactive) in the test on SK-MEL-5; 13.2 µM (inactive) in the test with NCI-H226; 10.6 µM (inactive) with LOX IMVI; 5.16 µM (inactive) with KM12; 0.448 µM with HCT-15; 9.79 µM (inactive) with SNB-19. In addition, the GI50 with NCI-H460 was 3.99 µM (inactive); in the test on DU-145, 6.19 µM (inactive); with OVCAR-5, 15.3 µM (inactive); in the test on TK-10 it was 15.1 µM (inactive); in the test with COLO 205 it was 15.8 µM (inactive); in the test with HCT-116, 6.97 µM (inactive). Further, the GI50 was 7.67 µM (inactive) with UO-31; 3.94 µM (inactive) in the test with SN12C; 12.5 µM (inactive) with OVCAR-4; 10.5 µM (inactive) with A549; 9.04 µM (inactive) with CAKI-1; 10.6 µM (inactive) in the test with SK-OV-3. The values for the GI50 in the test on NCI-H23 and with SF-268 were 5.3 µM (inactive) and 7.28 µM (inactive), respectively.
In the case of `CCOC(=O)C1(C(=O)OCC)C[C@H](C)[C@](C)(O)C1`, the GI50 in the test on SK-MEL-5 is > 100 µM (inactive); in the test with NCI-H226 it was > 100 µM (inactive); in the test with LOX IMVI, > 100 µM (inactive); in the test on KM12, > 100 µM (inactive); in the test on HCT-15, greater than 100 µM; in the test on SNB-19, > 100 µM (inactive). Also, the GI50 with NCI-H460, in the test with DU-145, in the test on OVCAR-5, in the test with TK-10, in the test with COLO 205 and with HCT-116 was > 100 µM (inactive) each time. The GI50 in the test on UO-31, in the test with SN12C, with OVCAR-4, with A549, in the test with CAKI-1 and in the test on SK-OV-3 was > 100 µM (inactive) each time. Besides, the GI50 in the test with NCI-H23 and in the test with SF-268 was > 100 µM (inactive) each time.
Take `CN(C)c1ccc(C(=C2C=CC(=[N+](C)C)C=C2)c2c(O)c(S(=O)(=O)[O-])cc3cc(S(=O)(=O)O)ccc23)cc1`: the GI50 in the test on SK-MEL-5 is > 100 µM (inactive); in the test on NCI-H226 it was > 100 µM (inactive); in the test on LOX IMVI, > 100 µM (inactive); in the test on KM12, > 100 µM (inactive); in the test with HCT-15, greater than 100 µM; in the test with SNB-19, > 100 µM (inactive). Also, the GI50 with NCI-H460, in the test with DU-145, with OVCAR-5, in the test on TK-10, with COLO 205 and in the test with HCT-116 was > 100 µM (inactive) throughout. The GI50 with UO-31, in the test with SN12C, with OVCAR-4, in the test on A549, in the test with CAKI-1 and in the test on SK-OV-3 was > 100 µM (inactive) each time. For the same compound, the GI50 in the test with NCI-H23 and with SF-268 was > 100 µM (inactive) throughout.
